Measured values as given in patent publication US20230321083A1, “Inhibitors of GPR174 and Uses Thereof” (Omeros Corporation, priority 2016, published 2023).
“And” between values parts separate entries of the source, which are not always exact repeats. Equal values may be shown once.

Legend:
Type in all cases: cell-based
human PBMCs = assay: Cytokines in culture supernatants of stimulated human PBMCs (ELISA / LEGENDplex); conditions: data not shown
Experimental: The effect of compound #10 on IL-2 and IFN-γ production in human PBMCs was determined as follows. PBMCs from a single donor were adjusted to a density of 2×10^6 cells/mL, stimulated with 100 ng/mL of anti-CD3 and 100 ng/mL of anti-CD28 antibodies and treated with 1 μM, 3 μM, or 10 μM of compound #10. Supernatant from these cells was taken on day 2 post-stimulation and the levels of IL-2 and IFN-γ were determined by ELISA assay using Ready-SET-Go ELISA kits from Affimetrix Ebioscience according to the manufacturer's instructions.
The effect of compound #10 on IL-2 production in human PBMCs was determined as follows. […] Supernatant from these cells was taken on day 3 post-stimulation and the levels of IL-2 were determined by ELISA assay using Ready-SET-Go™ ELISA kits from Affimetrix Ebioscience and LEGENDplex™ bead-based immunoassays from BioLegend according to the manufacturer's instructions.
The effect of compound #10 on IL-2 production in human PBMC from each donor was determined as follows. PBMC from each donor were adjusted to a density of 2×10^6 cells/mL, stimulated with 100 ng/mL of anti-CD3 and 100 ng/mL of anti-CD28 antibodies and treated with 30 μM compound #10. Supernatant from these cells was taken on day 2 post-stimulation and the levels of IL-2 were determined by ELISA assay using LEGENDplex™ bead-based immunoassays from BioLegend (San Diego, CA) according to the manufacturer's instructions.
The effect of compound #10 on the production of a panel of additional cytokines (interleukin 5 (IL-5), interleukin 13 (IL-13), interleukin 6 (IL-6), interleukin 9 (IL-9), interleukin 10 (IL-10), interferon gamma (IFN-γ), tumor necrosis factor alpha (TNF-α), interleukine 17A (IL-17A), interleukin 17F (IL-17F), interleukin 4 (IL-4) and interleukin 22 (IL-22)) in pooled human PBMC obtained from eight donors was determined as follows. PBMC from eight donors were pooled, then adjusted to a density of 2×10^6 cells/mL, stimulated with 100 ng/mL of anti-CD3 and 100 ng/mL of anti-CD28 antibodies and treated with 30 μM compound #10. Supernatant from these cells was taken on day 2 post-stimulation and the levels of IL-5, IL-13, IL-6, IL-9, IL-10, IFN-γ, TNF-α, IL-17A, IL-17F, IL-4 and IL-22 were determined by ELISA using LEGENDplex™ bead-based immunoassays from BioLegend (San Diego, CA) according to the manufacturer's instructions.

ADBR2 = molecular target: T1, ADBR2 (Homo sapiens, UniProt P07550); assay: CRE-Luc reporter Gs signaling assay, control receptor ADBR2
T1 construct: host or cells: HEK293 or CHO cell lines (ATCC)
T1 sequence (P07550 whole entry): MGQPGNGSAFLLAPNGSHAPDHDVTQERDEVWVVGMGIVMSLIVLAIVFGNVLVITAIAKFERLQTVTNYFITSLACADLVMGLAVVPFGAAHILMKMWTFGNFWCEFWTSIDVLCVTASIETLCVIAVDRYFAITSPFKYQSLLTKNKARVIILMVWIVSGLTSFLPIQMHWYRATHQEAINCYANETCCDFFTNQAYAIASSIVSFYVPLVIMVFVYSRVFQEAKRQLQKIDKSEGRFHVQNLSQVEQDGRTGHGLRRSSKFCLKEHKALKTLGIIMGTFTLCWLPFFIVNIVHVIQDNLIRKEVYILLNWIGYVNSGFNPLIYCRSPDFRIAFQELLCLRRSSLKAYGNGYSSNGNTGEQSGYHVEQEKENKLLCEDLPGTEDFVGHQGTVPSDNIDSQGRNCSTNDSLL
Experimental: (§1) Compounds were tested in the reporter system with increasing concentrations of GPR174-interacting compounds. GPR174 construct pCMV6-XL4-GPR174 or ADBR2, reporter of interest, pCRE-Luc or GL4.29 (3000 ng), and TK-renilla as an internal control (10 ng) with lipofectamine 2000 (60 ug) (Invitrogen, CA) according to the manufacturer's directions.
(§2) The DNA/lipofectamine 2000 mix (3000 μL) was incubated at room temperature for 30 minutes and then added into a 10 cm culture dish (Corning, NY) containing 70-90% confluent cultured cells, typically HEK293 or CHO cell lines (ATCC, VA), in 15 mL of media. The cells were further incubated for 4-6 hours at 37° C. and then media were removed and cells were detached with 2 mL trypsin (Life Technologies, CA). Media (26 mL) were added to the detached cells and 120 μL of transfected cells were transferred to each well on a 96-well plate. Increasing concentration of each compound in DMSO (1.2 μl) was added to the cells after plating into the 96-well plate. The cells were further incubated at 37° C. for various times. The media were removed and the cells lysed. Luciferase and renilla activities were measured with the Dual-luciferase assay system (Promega, WI) according to the manufacturer's directions. Typically, lysis buffer (25 μL) was added to the cells and incubated at room temperature for 20-30 minutes to allow for the cells to lyse. The lysate (10 μL) was measured for luciferase and renilla activity with LARII and Stop&Glo reagent (50 μL each) with a SpectraMax L (Molecular Devices, CA). Data were analyzed with either Excel (Microsoft, WA) or Prism 4.03 (GraphPad, CA).
(§3) ADBR2 is a GPCR, like GPR174, that activates the Gs signaling pathway.

GPR174 [1] = molecular target: T2, GPR174 (Homo sapiens, UniProt Q9BXC1); assay: CRE-Luc reporter Gs signaling assay, cells transfected with GPR174; set-up: host or cells: HEK293 or CHO cell lines (ATCC); conditions: for effect on Gs pathway in the presence of GPR174: CRE-Luc reporter; for nature of compound in GPR174 signaling assay: human GPR174 with pCRE-Luc
Experimental: as §1, §2, §3
Target sequence in this assay (Q9BXC1 whole entry): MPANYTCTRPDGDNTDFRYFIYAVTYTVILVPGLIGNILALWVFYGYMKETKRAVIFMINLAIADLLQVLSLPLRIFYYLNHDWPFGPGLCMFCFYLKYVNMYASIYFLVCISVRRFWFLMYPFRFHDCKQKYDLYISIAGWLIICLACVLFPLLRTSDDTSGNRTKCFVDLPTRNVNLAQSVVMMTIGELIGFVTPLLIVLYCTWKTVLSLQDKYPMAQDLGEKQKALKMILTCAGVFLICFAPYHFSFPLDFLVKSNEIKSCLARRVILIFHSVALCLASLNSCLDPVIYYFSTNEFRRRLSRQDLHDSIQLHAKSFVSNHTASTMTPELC

GPR174 [2] = molecular target: T2, GPR174; assay: Cellular Redistribution Assay (CRA) against GPR174; set-up: fused on or other part: No tag or reporter is given; conditions: for dose-response in CRA against GPR174: FIG. 5A; for EC50: multiple values = separate experiments
From the text: One method for identifying compounds capable of modulating a receptor is using a cellular redistribution assay (“CRA”). Exemplary CRA methods are found in U.S. Pat. No. 7,309,576 issued to O'Dowd et al. and in O'Dowd et al., J. Biomol. Screen. 12:175-85, 2007. […] Incorporation of the NLS alters the cellular localization of the GPCR, such that the majority of the NLS-modified receptor is present in the cell interior. An NLS-modified GPCR, when interacting with a functionally active compound, is mostly localized on the cell surface. Thus, it becomes possible to identify receptor modulators without knowledge of the endogenous ligand or a surrogate ligand.
The inventors have identified a number of compounds that inhibit GPR174 using a CRA assay similar to that described in U.S. Pat. No. 7,309,576 and in O'Dowd et al., J. Biomol. Screen. 12:175-85, 2007. These compounds are described in detail below.
(§4) The inventors used a CRA similar to that described in U.S. Pat. No. 7,309,576 and O'Dowd et al., J. Biomol. Screen. 12:175-85, 2007 to identify compounds that are capable of interacting with GPR174 using a library of approximately 370,000 chemical entities. Briefly described, the CRA assay described in U.S. Pat. No. 7,309,576 involves artificially inserting a NLS into the dopamine D1 receptor (DRD1), which allows the receptor to traffic from the cell membrane to the cell interior, and that the binding of antagonists to the receptor retained the receptor at the cell surface, while removal of the ligand allowed the receptor to continue to internalize from the cell surface. Both antagonists and agonists that selectively bound the receptor retained the receptor on the plasma membrane. GPR174 constructs were generated for use in a CRA-based compound screening assay. From this screen, the inventors initially identified compounds of formula I-VI, as described herein and included in TABLE 1.
Target sequence in this assay (Q9BXC1 1-290 limits assumed): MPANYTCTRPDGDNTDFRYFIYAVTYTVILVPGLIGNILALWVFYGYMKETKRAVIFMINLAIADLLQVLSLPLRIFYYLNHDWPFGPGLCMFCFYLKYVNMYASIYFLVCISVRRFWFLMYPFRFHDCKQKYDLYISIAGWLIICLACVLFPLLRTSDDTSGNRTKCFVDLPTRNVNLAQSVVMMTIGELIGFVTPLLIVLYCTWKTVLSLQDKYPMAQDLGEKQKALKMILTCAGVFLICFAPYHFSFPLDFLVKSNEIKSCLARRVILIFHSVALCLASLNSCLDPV

CHRM1 = assay: Cellular Redistribution Assay (CRA) against CHRM1; conditions: FIG. 5B
From the text: as §4
The inventors also sought to validate that the compounds identified using the CRA are modulatory compounds. To this end, the above-described CRA was used to screen a library for compounds that interact with three control non-orphan receptors, and the results of this screen were compared to the results of screening the same library for compound that were identified using a Fluorometric Imaging Plate Reader (FLIPR) assay, a conventional technique commonly used to identify compounds interacting with non-orphan GPCRs signaling through Ca+. Three non-orphan GPCRs—Muscarinic acetylcholine receptor M1 (CHRM1), Adrenergic receptor alpha 1a (ADRA1a), and Neuropeptide S receptor (NPSR)—were screened against a 10,000-compound GPCR-focused library. Thirty interacting compound “hits” were identified using the CRA, and eighty-one hits were identified using the FLIPR for the CHRM1 receptor; 9 CRA hits and 29 FLIPR hits for the NPS receptor were identified; and 110 CRA hits and 110 FLIPR hits for ADRA1a.
In addition, the CRA can also provide the relative potencies of compounds against the target receptor.

Row | effect on Gs pathway in the presence of ADBR2 (ADBR2) | effect on Gs pathway in the presence of GPR174 (GPR174 [1]) | Human GPR174 CRE Activity: nature of compound (GPR174 [1]) | nature of compound in GPR174 signaling assay (GPR174 [1]) | Structure (SMILES) | other results
1 | – | – | – | inverse agonist | C=C(C)COc1ccc(NC(=O)Nc2ccccc2)cc1 [Compound 56] | –
2 | did not inhibit the Gs pathway | inhibited the Gs pathway | – | – | O=C1CCCC2=C1C(c1ccc3c(c1)OCCO3)C1=C(N2)c2ccccc2C1=O (centres unmarked) [Compound 36] | –
3 | did not modulate the Gs pathway | did not modulate the Gs pathway | Antagonist or allosteric modulator | non-modulator | Cc1cc(Cc2ccc(NC(=O)c3cccs3)c(C)c2)ccc1NC(=O)c1cccs1 [Compound 21] | –
4 | did not inhibit the Gs pathway | inhibited the Gs pathway | – | – | O=C1CCCC2=C1C(c1ccncc1)C1=C(N2)c2ccccc2C1=O (centres unmarked) [Compound 42] | –
5 | did not inhibit the Gs pathway | inhibited the Gs pathway | – | – | O=C1CCCC2=C1C(c1ccc(OCCO)cc1)C1=C(N2)c2ccccc2C1=O (centres unmarked) [Compound 33] | –
6 | did not inhibit the Gs pathway | inhibited the Gs pathway | – | – | COc1ccc(C2C3=C(CCCC3=O)NC3=C2C(=O)c2ccccc23)cc1 (centres unmarked) [Compound 22] | EC50 (GPR174 [2]): 6.7 µM and 5.3 µM
7 | did not inhibit the Gs pathway | inhibited the Gs pathway | – | – | CCCCOc1ccc(C2C3=C(CCCC3=O)NC3=C2C(=O)c2ccccc23)cc1 (centres unmarked) [Compound 31] | –
8 | did not inhibit the Gs pathway | inhibited the Gs pathway | – | – | CCOc1ccc(C2C3=C(CCCC3=O)NC3=C2C(=O)c2ccccc23)cc1 (centres unmarked) [Compound 23] | –

More lines, now with the values behind:

Row | Structure (SMILES) | effect on Gs pathway in the presence of ADBR2 (ADBR2) | effect on Gs pathway in the presence of GPR174 (GPR174 [1]) | Human GPR174 CRE Activity: nature of compound (GPR174 [1]) | nature of compound in GPR174 signaling assay (GPR174 [1]) | other results
9 | O=C(c1ccccc1)N1CCN(c2cc(N3CCCCC3)c(F)cc2[N+](=O)[O-])CC1 [Compound 6] | did not inhibit the Gs pathway | inhibited the Gs pathway | – | – | IL-2 levels in PBMC cultures (human PBMCs): increased IL-2 levels
10 | CC(=O)c1ccc(N2CCN(C(=O)c3ccc(F)cc3)CC2)c(F)c1 [Compound 3] | – | – | Antagonist or allosteric modulator | – | dose-response in CRA against GPR174 (GPR174 [2]): show a dose-response curve against GPR174; activity in CRA against CHRM1 (CHRM1): do not show any activity against CHRM1
11 | CC1CCN(c2cc(N3CCN(C(=O)c4cccs4)CC3)c([N+](=O)[O-])cc2F)CC1 [Compound 12] | – | – | – | – | EC50 (GPR174 [2]): 0.3 µM
12 | O=C(N/N=C/c1cc(Cl)ccc1O)c1ccncc1 [Compound 57] | – | – | Antagonist or allosteric modulator | GPR174 antagonists or allosteric modulators | EC50 (GPR174 [2]): 5.6 µM
13 | O=[N+]([O-])c1cc(F)c(N2CCCCC2)cc1N1CCN(S(=O)(=O)c2ccccc2)CC1 [Compound 11] | did not inhibit the Gs pathway | inhibited the Gs pathway | – | – | EC50 (GPR174 [2]): 1.5 µM
14 | CCOC(=O)N1CCN(c2cc(N3CCCCC3)c(F)cc2[N+](=O)[O-])CC1 [Compound 7] | did not inhibit the Gs pathway | inhibited the Gs pathway | – | – | –
15 | Cc1ccc(-c2nnc(Nc3ccccc3)c3ccccc23)cc1S(N)(=O)=O [Compound 19] | did not modulate the Gs pathway | did not modulate the Gs pathway | Antagonist or allosteric modulator | non-modulators | –
16 | Cc1ccccc1Nc1nnc(-c2ccc(C)c(S(N)(=O)=O)c2)c2ccccc12 [Compound 20] | – | – | Antgonist or allosteric modulator | non-modulators | dose-response in CRA against GPR174 (GPR174 [2]): show a dose-response curve against GPR174; activity in CRA against CHRM1 (CHRM1): do not show any activity against CHRM1
17 | Cc1cc(C(=O)N/N=C/c2cc(Br)ccc2O)c(C)o1 [Compound 58] | – | – | Antagonist or allosteric modulator | GPR174 antagonists or allosteric modulators | EC50 (GPR174 [2]): 3.7 µM
